Key:
Type in all cases: cell-based
E. coli BW25113 = experiment: MIC, microdilution in 96-well plates; conditions: Escherichia coli, BW25113, B: E. coli BW25113; read-out: MIC
Experimental: (§1) A microdilution method in 96-well plates was used and the MIC protocol established by the Clinical Laboratory Standards Institute was followed. From a growing subculture, a 1:10000 inoculum of each strain in Luria-Bertani media was prepared and aliquoted 100 μL in 4 columns of wells, except for the top row wells, which contained 200 μL of inoculum. A solution of gyramide C2 was aliquoted into 3 of the wells containing 200 μL and DMSO was added to the 4th well. The liquid in each of wells was mixed with a multi-channel pipet and 100 μL was transferred to the next well and mixed. The 2-fold dilution was continued down the 96-well plate until 100 μL was left, which was discarded. The plates were incubated at 37° C. with shaking for 16-18 hours. The MIC was determined as the lowest concentration that inhibited growth and had no turbidity by visual inspection.
(§2) Minimum inhibitory concentrations of various gyramide compounds against 20 strains of bacteria were determined using the procedure described above.

Edwardsiella tarda = experiment: MIC, microdilution in 96-well plates; conditions: D: Edwardsiella tarda
Experimental: as §1, §2

E. coli JW5503 (deltolC) = experiment: MIC, 20-strain panel; conditions: Escherichia coli, C: E. coli JW5503 (deltolC)
Experimental: as §1, §2

E. coli MG1655 = experiment: MIC, 20-strain panel; conditions: Escherichia coli, MG1655, A: E. coli MG1655; read-out: MIC
Experimental: as §1, §2

[1] = tested on: Klebsiella pneumoniae subsp. pneumoniae; experiment: MIC, 20-strain panel; conditions: E: Klebsiella pneumoniae subsp. pneumoniae
Experimental: as §1, §2

[2] = tested on: Salmonella enterica subsp. enterica typhimurium; experiment: MIC, 20-strain panel; conditions: F: Salmonella enterica subsp. enterica Typhimurium
Experimental: as §1, §2

Shigella flexneri = experiment: MIC, 20-strain panel; conditions: G: Shigella flexneri
Experimental: as §1, §2

[3] = tested on: Staphylococcus aureus subsp. aureus; experiment: MIC, 20-strain panel; conditions: H: Staphylococcus aureus subsp. aureus, read-out: MIC
Experimental: as §1, §2

[4] = tested on: Staphylococcus epidermidis; experiment: MIC, 20-strain panel
Experimental: as §1, §2

[5] = tested on: Staphylococcus saprophyticus subsp. saprophyticus; experiment: MIC, 20-strain panel
Experimental: as §1, §2

Streptococcus agalactiae = experiment: MIC, 20-strain panel
Experimental: as §1, §2

Streptococcus pyogenes = experiment: MIC, 20-strain panel
Experimental: as §1, §2

Measured: MIC

O=S(=O)(N[C@@H]1CCN(Cc2ccc(-c3ccccn3)cc2)C1)c1cccc(C(F)(F)F)c1 [Compound 43]
0.5 µg/mL: E. coli JW5503 (deltolC)
> 8 µg/mL: all other assays above

CC(=O)c1cccc(S(=O)(=O)N[C@@H]2CCN(Cc3ccc(-c4ccccc4)cc3)C2)c1 [Compound 44]
0.25 µg/mL: E. coli JW5503 (deltolC)
8 µg/mL: [2]
> 8 µg/mL: all other assays above

O=S(=O)(N[C@@H]1CCN(Cc2ccc(OC3CCCC3)cc2)C1)c1cccc(OC(F)(F)F)c1 [Compound 45]
8 µg/mL: [4]
2 µg/mL: E. coli JW5503 (deltolC)
> 8 µg/mL: all other assays above

N#Cc1cccc(S(=O)(=O)N[C@@H]2CCN(Cc3ccc(-c4ccccn4)cc3)C2)c1 [Compound 46]
8 µg/mL: [2]
1 µg/mL: E. coli JW5503 (deltolC)
> 8 µg/mL: all other assays above

O=S(=O)(N[C@@H]1CCN(Cc2ccc(-c3ccccc3)cc2)C1)c1cc(C(F)(F)F)ccc1Cl [Compound 47]
~8 µg/mL: [2] | [4] | Streptococcus pyogenes
1 µg/mL: E. coli JW5503 (deltolC)
> 8 µg/mL: all other assays above

O=S(=O)(N[C@@H]1CCN(Cc2ccc(-c3ccccn3)cc2)C1)c1cccc(OC(F)(F)F)c1 [Compound 48]
1 µg/mL: E. coli JW5503 (deltolC)
> 8 µg/mL: all other assays above

CC(=O)c1cccc(S(=O)(=O)N[C@@H]2CCN(Cc3ccc(OC(C)C)cc3)C2)c1 [Compound 49]
2 µg/mL: E. coli JW5503 (deltolC)
> 8 µg/mL: all other assays above

O=S(=O)(N[C@@H]1CCN(Cc2ccc(-c3cccc(Cl)c3)cc2)C1)c1cccc(C(F)(F)F)c1 [Compound 50]
~8 µg/mL: Streptococcus pyogenes
2 µg/mL: [4]
8 µg/mL: E. coli JW5503 (deltolC) | [3]
> 8 µg/mL: all other assays above

O=S(=O)(N[C@@H]1CCN(Cc2ccc(OC(F)(F)F)cc2)C1)c1cccc(OC(F)(F)F)c1 [Compound 51]
4 µg/mL: E. coli JW5503 (deltolC)
> 8 µg/mL: all other assays above

O=S(=O)(N[C@@H]1CCN(Cc2ccc(SC(F)(F)F)cc2)C1)c1cccc(C(F)(F)F)c1 [Compound 52]
4 µg/mL: E. coli JW5503 (deltolC)
> 8 µg/mL: all other assays above

O=S(=O)(N[C@@H]1CCN(Cc2ccc(-c3cccs3)cc2)C1)c1cccc(OC(F)(F)F)c1 [Compound 53]
4 µg/mL: E. coli JW5503 (deltolC)
8 µg/mL: [4]
> 8 µg/mL: all other assays above

N#Cc1cccc(S(=O)(=O)N[C@@H]2CCN(Cc3ccc(OC4CCOCC4)cc3)C2)c1 [Compound 54]
8 µg/mL: [2]
2 µg/mL: E. coli JW5503 (deltolC)
> 8 µg/mL: all other assays above

O=S(=O)(N[C@@H]1CCN(Cc2ccc(SC(F)(F)F)cc2)C1)c1cccc(OC(F)(F)F)c1 [Compound 55]
8 µg/mL: E. coli JW5503 (deltolC)
> 8 µg/mL: all other assays above

Cc1c(CN2CC[C@@H](NS(=O)(=O)c3cccc(C(F)(F)F)c3)C2)cnn1-c1ccccc1 [Compound 56]
> 8 µg/mL: all assays above

O=S(=O)(N[C@@H]1CCN(Cc2ccc(-c3nccs3)cc2)C1)c1cccc(C(F)(F)F)c1 [Compound 57]
8 µg/mL: E. coli JW5503 (deltolC)
> 8 µg/mL: all other assays above

O=S(=O)(N[C@@H]1CCN(Cc2ccc(-c3cncnc3)cc2)C1)c1cccc(C(F)(F)F)c1 [Compound 58]
8 µg/mL: E. coli JW5503 (deltolC)
> 8 µg/mL: all other assays above

CC(C)Oc1ccc(CN2CC[C@@H](NS(=O)(=O)c3cnccc3Cl)C2)cc1 [Compound 59]
> 8 µg/mL: all assays above

O=S(=O)(N[C@@H]1CCN(Cc2ccc3c(c2)OCCO3)C1)c1cccc(C(F)(F)F)c1 [Compound 60]
8 µg/mL: E. coli JW5503 (deltolC)
> 8 µg/mL: all other assays above

COc1ccc(-c2ccc(CN3CC[C@@H](NS(=O)(=O)c4cccc(C(F)(F)F)c4)C3)cc2)cc1 [Compound 61]
4 µg/mL: E. coli JW5503 (deltolC)
~8 µg/mL: [4] | Streptococcus pyogenes
> 8 µg/mL: all other assays above

O=S(=O)(N[C@@H]1CCN(Cc2ccc3c(c2)OCCO3)C1)c1cccc(OC(F)(F)F)c1 [Compound 62]
8 µg/mL: E. coli JW5503 (deltolC)
> 8 µg/mL: all other assays above

O=S(=O)(N[C@@H]1CCN(Cc2ccc(-c3cncnc3)cc2)C1)c1cccc(OC(F)(F)F)c1 [Compound 63]
4 µg/mL: E. coli JW5503 (deltolC)
> 8 µg/mL: all other assays above

From patent US10253039B2, “Inhibitors of bacterial DNA gyrase with efficacy against gram-negative bacteria” (priority 2014, dated 2019)
